Results reported in PubChem BioAssay (NCI).
Values joined by “and” are separate entries in the source; they are usually repeats but may differ in a detail not shown here. Equal values may be shown once.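 Cells were grown in 96-well plates and exposed to each compound for 48 hours at five concentrations; endpoints were interpolated linearly between bracketing concentrations, or set to the highest concentration if not reached. Abbreviation: GI50, concentration required for 50% inhibition of growth. TGI: concentration producing complete growth inhibition.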

Columns and labels:
Experiment in all cases: inhibition of tumour cell growth, NCI panel, 48 h
[1] = system: EKVX NSCLC
[2] = system: SW-620 colon
[3] = system: HCT-116 colon
[4] = system: M14 melanoma
[5] = system: NCI-H522 lung
[6] = system: U251 CNS
[7] = system: BT-549 breast
[8] = system: 786-0 renal
[9] = system: OVCAR-4 ovarian
[10] = system: SK-OV-3 ovarian

Structure (SMILES)	TGI [1]	TGI [2]	TGI [3]	TGI [4]	TGI [5]	TGI [6]	TGI [7]	TGI [8]	TGI [9]	TGI [10]	GI50 [1]	GI50 [2]	GI50 [3]	GI50 [4]	GI50 [5]	GI50 [6]	GI50 [7]	GI50 [8]	GI50 [9]	GI50 [10]
O=C(O)c1ccc(S(=O)(=O)N=Nc2c(O)[nH]c3ccccc23)cc1	> 100 µM	> 100 µM	> 100 µM	> 100 µM	> 100 µM	> 100 µM	> 100 µM	> 100 µM	> 100 µM	> 100 µM										
CCN(Cc1nc2cc(C(F)(F)F)ccc2nc1-c1ccccc1)c1ccc(OC)c(OC)c1	73.6 µM	36.5 µM	23.2 µM	29.5 µM	34 µM	19.1 µM	31.7 µM	30.3 µM	> 100 µM	> 100 µM	20.1 µM	16.6 µM	11.1 µM	15.4 µM	14.5 µM	6.49 µM	13.4 µM	15.7 µM	41.2 µM	39.8 µM
CCCC(=O)NC(c1ccc2c(c1)OCO2)c1ccc2cccnc2c1O (stereo not given)	21.4 µM	> 100 µM	56.1 µM	20.6 µM	> 100 µM	> 100 µM	83.7 µM	14.7 µM	6.02 µM	29.7 µM	1.73 µM	1.2 µM	0.387 µM	1.08 µM	1.63 µM	1.15 µM	2.09 µM	1.64 µM	0.375 µM	1.89 µM
CC12CCc3ccccc3C1=Nc1ccccc12 (stereo not given)	> 100 µM	> 100 µM	> 100 µM	> 100 µM	> 100 µM	> 100 µM	95.6 µM	> 100 µM	> 100 µM	> 100 µM										
CCCCCC(=O)OCC(=O)O[C@@H]1C[C@]2(C(C)C)O[C@@]1(C)[C@@H]1CC[C@@H](C)[C@H]1[C@@H]2OC(=O)/C=C/c1ccccc1	> 100 µM	> 67.6 µM	> 100 µM	> 100 µM	> 76.5 µM	> 100 µM	14.4 µM	13.6 µM	> 71.5 µM	> 100 µM	> 54.5 µM	> 40.7 µM	32.2 µM	> 53.4 µM	38.2 µM	> 53.1 µM	0.0923 µM	0.789 µM	26.5 µM	> 85.2 µM
CC1CCC2C(C)C3C(CC4C5CC=C6CC(OC7OC(CO)C(O)C(OC8OC(CO)C(O)C(O)C8O)C7OC7OC(C)C(O)C(O)C7O)CCC6(C)C5CCC43C)N2C1 (stereo not given)	21.9 µM and > 2.5 µg/mL	31.6 µM and > 2.5 µg/mL	24.5 µM and > 2.5 µg/mL	9.84 µM and > 2.5 µg/mL	35.2 µM and > 2.5 µg/mL	31.1 µM and > 2.5 µg/mL	31.9 µM and > 2.5 µg/mL	20.4 µM and > 2.5 µg/mL	20.3 µM and > 2.5 µg/mL	29.6 µM and > 2.5 µg/mL	> 2.5 µg/mL	> 2.5 µg/mL	> 2.5 µg/mL	> 2.5 µg/mL	> 2.5 µg/mL	> 2.5 µg/mL	> 2.5 µg/mL	> 2.5 µg/mL	> 2.5 µg/mL	> 2.5 µg/mL
O=C1C=CN(C2OC(CO)C(O)C2O)C(=O)C1 (stereo not given)	> 2500 µM	625 µM and > 2500 µM	625 µM and > 2500 µM	> 2500 µM	> 2320 µM	625 µM and > 2500 µM	> 2500 µM	1260 µM	> 2500 µM	625 µM and > 2320 µM		71.4 µM	2.54 µM		> 625 µM and 518 µM	298 µM and 289 µM			> 625 µM and 953 µM	580 µM
NC(N)=N/N=C/c1cccc(Cl)c1Cl	24.2 µM	5.89 µM	10.8 µM	4.04 µM	13.6 µM	13.2 µM	28.7 µM	24.7 µM	26.8 µM	20 µM	9.02 µM	2.25 µM	3.24 µM	1.98 µM	3.16 µM	3.4 µM	13.2 µM	11.1 µM	13 µM	7.06 µM
CCOC(=O)c1c(C)n(CC(C)C)c2c1cc1oc(=O)c(=O)n3cnc2c13	> 50 µM	10.6 µM	> 50 µM	> 50 µM	> 50 µM	24.1 µM	43 µM	> 50 µM	> 50 µM	> 50 µM	17.4 µM	1.79 µM	14.8 µM	16.9 µM	> 50 µM	10 µM	15.7 µM	20.1 µM	17.4 µM	20.4 µM
CC(C)c1cc(CNc2nc(Nc3cc(C4CC4)[nH]n3)cc(N3CCN(C)CC3)n2)on1	> 10 µM	> 10 µM and 10.8 µM	> 10 µM and 44.6 µM	> 10 µM and 2.51 µM	4.3 µM and 3.83 µM	> 10 µM and 10.3 µM	> 10 µM and 1.4 µM	> 10 µM and 3.72 µM	> 10 µM and 4.57 µM	4.45 µM and 5.4 µM	0.587 µM				0.422 µM and 0.992 µM	3.49 µM and 0.408 µM		1.43 µM and 0.223 µM	2.14 µM and 0.731 µM	0.904 µM and 0.335 µM
CCCCCCCCCCCCOC1C(C(COC2OC(C(O)CN3CCCCC3)C3OC(C)(C)OC23)NC(=O)Nc2ccccc2)OC2OC(C)(C)OC21 (stereo not given)	30.2 µM	14.7 µM	12.7 µM	19.4 µM	48 µM	27.2 µM	29.5 µM	30.5 µM	27.3 µM	44.1 µM	14.4 µM	4.11 µM	4.54 µM	7.75 µM	17.5 µM	9.46 µM	14.9 µM	14.1 µM	9.48 µM	20.4 µM
BrC(Br)(Br)c1cnc2ccccc2n1	13.2 µM		2.66 µM	6.42 µM	1.28 µM	3.17 µM	6.84 µM	5 µM	3.98 µM	13.6 µM	2.99 µM		1.1 µM	2.05 µM	0.544 µM	1.3 µM	2.4 µM	2.02 µM	1.46 µM	3.38 µM
O=C1NC(=O)C2(CCC(O)C2)c2cc[n+]([O-])cc21 (stereo not given)	> 100 µM	> 100 µM	> 100 µM	> 100 µM	> 100 µM	> 100 µM	> 100 µM	> 100 µM	> 100 µM	> 100 µM										
